Experimental data from patent US20260022143A1, “Cyclic Peptide Inhibitors of IL-23” (JANSSEN PHARMACEUTICA NV, priority 2022, published 2026).
Starred links: 1 amine or outer side, 2 acyl side, 3 side chain; linkers in the order of their positions; H or OH if unused. Positions of bridges follow the written chain, without caps; N, C: chain ends. Non-standard residues stand in square brackets, D forms with d. Residues, ends and D or L forms follow the SMILES beside them. *: point of attachment. Me3N+(CH2)2O(CH2)2O(CH2)2CO = C[N+](C)(C)CCOCCOCCC(=O)*; CH2CH2OCH2CH2OCH2CH2NMe3+ = C[N+](C)(C)CCOCCOCC*; Trp(7-Me) = Cc1cccc2c(C[C@H](N)C(=O)O)c[nH]c12; X1 = CN(CC[C@H](N[*:1])C(=O)[*:2])[*:3]; 2Nal = N[C@@H](Cc1ccc2ccccc2c1)C(=O)O; AEF = NCCOc1ccc(C[C@H](N)C(=O)O)cc1; X82 = C[N+](C)(C)CCOCCOCCOCCOCCN*; 3Pal = N[C@@H](Cc1cccnc1)C(=O)O; Lys(Me) = CNCCCC[C@H](N)C(=O)O; X7 = COCCOCCOCCOCCOCCOCCC(=O)*; Pen = CC(C)(S)[C@H](N)C(=O)O; Thp = NC1(C(=O)O)CCOCC1; X3 = C[N+](C)(C)CCCCC*; Me2NCH2CH2 = CN(C)CC*; Sar = CNCC(=O)O

Assay: Exposed Polar Surface Area (EPSA)
Format: physicochemical
Settings: SFC on Chirex 3014 column; sample 1 mM DMSO stock; read-out: EPSA
In short: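 Polarity measured by SFC on a Chirex 3014 column (35 °C, 4 mL/min) with methanol/ammonium formate in CO2 as gradient eluent. Retention times were normalised to EPSA (Å^2) against eight reference compounds.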

| SMILES | EPSA [A^2] |
| --- | --- |
| CC(=O)N(C)CCCC[C@@H]1NC(=O)[C@H](Cc2c[nH]c3c(C)cccc23)NC(=O)[C@H]([C@@H](C)O)NC(=O)[C@H](CC(=O)N(C)C)NC(=O)[C@@H](NC(=O)CCOCCOCC[N+](C)(C)C)C(C)(C)SSC(C)(C)[C@@H](C(=O)N[C@@H](Cc2ccc(OCCN)cc2)C(=O)N[C@@H](Cc2ccc3ccccc3c2)C(=O)NC2(C(=O)N[C@@H](CCC(=O)N(C)C)C(=O)N[C@@H](CC(N)=O)C(=O)N[C@@H](Cc3cccnc3)C(=O)N(C)CC(N)=O)CCOCC2)NC1=O [compound 150, cPEG3aCO-Pen(3)-N(N(Me)2)-T-7MeW-K(NMeAc)-Pen(3)-AEF-2Nal-THP-Q(N(Me)2)-N-3Pya-Sar-CONH2] ({Me3N+(CH2)2O(CH2)2O(CH2)2CO}-[Pen]D(NMe2)T[Trp(7-Me)][Lys(Me)](Ac)[Pen][AEF][2Nal][Thp]E(NMe2)N[3Pal][Sar]-NH2; disulfide 1-6) | 159 |
| Cc1cccc2c(C[C@@H]3NC(=O)[C@H]([C@@H](C)O)NC(=O)[C@H](CC(=O)N(C)C)NC(=O)[C@@H](NC(=O)CCOCCOCC[N+](C)(C)C)C(C)(C)SSC(C)(C)[C@@H](C(=O)N[C@@H](Cc4ccc(OCCN(C)C)cc4)C(=O)N[C@@H](Cc4ccc5ccccc5c4)C(=O)NC4(C(=O)N[C@@H](CCC(=O)N(C)C)C(=O)N[C@@H](CC(N)=O)C(=O)N[C@@H](Cc5cccnc5)C(=O)N(C)CC(=O)N(C)C)CCOCC4)NC(=O)[C@H](CCC(=O)N(C)C)NC3=O)c[nH]c12 [compound 154, cPEG3aCO-Pen(3)-N(N(Me)2)-T-7MeW-Q(N(Me)2)-Pen(3)-AEF(N(Me)2)-2Nal-THP-Q(N(Me)2)-N-3Pya-Sar-CON(Me)2] ({Me3N+(CH2)2O(CH2)2O(CH2)2CO}-[Pen]D(NMe2)T[Trp(7-Me)]E(NMe2)[Pen]Y(Me2NCH2CH2)[2Nal][Thp]E(NMe2)N[3Pal][Sar]-NMe2; disulfide 1-6) | 144 |
| COCCOCCOCCOCCOCCOCCC(=O)N(C)CC[C@@H]1NC(=O)[C@H](Cc2c[nH]c3c(C)cccc23)NC(=O)[C@H]([C@@H](C)O)NC(=O)[C@H](CC(=O)N(C)C)NC(=O)[C@@H](NC(C)=O)C(C)(C)SSC(C)(C)[C@@H](C(=O)N[C@@H](Cc2ccc(OCCN)cc2)C(=O)N[C@@H](Cc2ccc3ccccc3c2)C(=O)NC2(C(=O)N[C@@H](CCC(=O)O)C(=O)N[C@@H](CC(N)=O)C(=O)N[C@@H](Cc3cccnc3)C(=O)N(C)CC(=O)N(C)C)CCOCC2)NC1=O [compound 158, MeCO-Pen(3)-N(N(Me)2)-T-7MeW-Dab(NMeCOmPEG6)-Pen(3)-AEF-2Nal-THP-E-N-3Pya-Sar-CON(Me)2] (Ac-[Pen]D(NMe2)T[Trp(7-Me)][X1](X7)[Pen][AEF][2Nal][Thp]EN[3Pal][Sar]-NMe2; disulfide 1-6) | 160 |
| CC(=O)N(C)CCCC[C@H](NC(=O)C1(NC(=O)[C@H](Cc2ccc3ccccc3c2)NC(=O)[C@H](Cc2ccc(OCCN)cc2)NC(=O)[C@H]2NC(=O)[C@H](CCC(=O)N(C)C)NC(=O)[C@H](Cc3c[nH]c4c(C)cccc34)NC(=O)[C@H]([C@@H](C)O)NC(=O)[C@H](CC(N)=O)NC(=O)[C@@H](NC(=O)CCOCCOCC[N+](C)(C)C)C(C)(C)SSC2(C)C)CCOCC1)C(=O)N[C@@H](CC(N)=O)C(=O)N[C@@H](Cc1cccnc1)C(=O)N(C)CC(N)=O [compound 168, cPEG3aCO-Pen(3)-N-T-7MeW-Q(N(Me)2)-Pen(3)-AEF-2Nal-THP-K(NMeAc)-N-3Pya-Sar-CONH2] ({Me3N+(CH2)2O(CH2)2O(CH2)2CO}-[Pen]NT[Trp(7-Me)]E(NMe2)[Pen][AEF][2Nal][Thp][Lys(Me)](Ac)N[3Pal][Sar]-NH2; disulfide 1-6) | 154 |
| CC(=O)N(C)CCCC[C@@H]1NC(=O)[C@H](Cc2c[nH]c3c(C)cccc23)NC(=O)[C@H]([C@@H](C)O)NC(=O)[C@H](CC(=O)N(C)C)NC(=O)[C@@H](NC(=O)CCOCCOCC[N+](C)(C)C)C(C)(C)SSC(C)(C)[C@@H](C(=O)N[C@@H](Cc2ccc(OCCN)cc2)C(=O)N[C@@H](Cc2ccc3ccccc3c2)C(=O)NC2(C(=O)N[C@@H](CCCCN(C)C(C)=O)C(=O)N[C@@H](CC(N)=O)C(=O)N[C@@H](Cc3cccnc3)C(=O)N(C)CC(N)=O)CCOCC2)NC1=O [compound 169, cPEG3aCO-Pen(3)-N(N(Me)2)-T-7MeW-K(NMeAc)-Pen(3)-AEF-2Nal-THP-K(NMeAc)-N-3Pya-Sar-CONH2] ({Me3N+(CH2)2O(CH2)2O(CH2)2CO}-[Pen]D(NMe2)T[Trp(7-Me)][Lys(Me)](Ac)[Pen][AEF][2Nal][Thp][Lys(Me)](Ac)N[3Pal][Sar]-NH2; disulfide 1-6) | 154 |
| CC(=O)N[C@@H]1C(=O)N[C@@H](CC(=O)N(C)C)C(=O)N[C@@H]([C@@H](C)O)C(=O)N[C@@H](Cc2c[nH]c3c(C)cccc23)C(=O)N[C@@H](CCCCN(C)C(C)=O)C(=O)N[C@H](C(=O)N[C@@H](Cc2ccc(OCCCCC[N+](C)(C)C)cc2)C(=O)N[C@@H](Cc2ccc3ccccc3c2)C(=O)NC2(C(=O)N[C@@H](CCCCN(C)C(C)=O)C(=O)N[C@@H](CC(N)=O)C(=O)N[C@@H](Cc3cccnc3)C(=O)N(C)CC(=O)N(C)C)CCOCC2)C(C)(C)SSC1(C)C [compound 190, MeCO-Pen(3)-N(N(Me)2)-T-7MeW-K(NMeAc)-Pen(3)-TMAPF-2Nal-THP-K(NMeAc)-N-3Pya-Sar-CON(Me)2] (Ac-[Pen]D(NMe2)T[Trp(7-Me)][Lys(Me)](Ac)[Pen]Y(X3)[2Nal][Thp][Lys(Me)](Ac)N[3Pal][Sar]-NMe2; disulfide 1-6 (inferred)) | 137 |
| CC(=O)NCCCC[C@@H]1NC(=O)[C@H](Cc2c[nH]c3c(C)cccc23)NC(=O)[C@H]([C@@H](C)O)NC(=O)[C@H](CC(N)=O)NC(=O)[C@@H](NC(=O)CCCCC[N+](C)(C)C)C(C)(C)SSC(C)(C)[C@@H](C(=O)N[C@@H](Cc2ccc(OCCNC(=O)CCOCCOCC[N+](C)(C)C)cc2)C(=O)N[C@@H](Cc2ccc3ccccc3c2)C(=O)NC2(C(=O)N[C@@H](CNC(C)=O)C(=O)N[C@@H](CC(N)=O)C(=O)N[C@@H](Cc3cccnc3)C(=O)N(C)CC(N)=O)CCOCC2)NC1=O [compound 192] | 149 |

More lines, now with the values ahead:

| EPSA [A^2] | SMILES |
| --- | --- |
| 150 | CC(=O)NCCCC[C@@H]1NC(=O)[C@H](Cc2c[nH]c3c(C)cccc23)NC(=O)[C@H]([C@@H](C)O)NC(=O)[C@H](CC(N)=O)NC(=O)[C@@H](NC(C)=O)C(C)(C)SSC(C)(C)[C@@H](C(=O)N[C@@H](Cc2ccc(OCCN)cc2)C(=O)N[C@@H](Cc2ccc3ccccc3c2)C(=O)NC2(C(=O)N[C@@H](CCCCNC(C)=O)C(=O)N[C@@H](CC(N)=O)C(=O)N[C@@H](Cc3cccnc3)C(=O)N(C)CC(=O)NCCOCCOCCOCCOCC[N+](C)(C)C)CCOCC2)NC1=O [compound 155] (Ac-[Pen]NT[Trp(7-Me)]K(Ac)[Pen][AEF][2Nal][Thp]K(Ac)N[3Pal][Sar]-X82; disulfide 1-6 (inferred)) |
| 153 | CC(=O)N[C@@H]1C(=O)N[C@@H](CC(=O)N(C)C)C(=O)N[C@@H]([C@@H](C)O)C(=O)N[C@@H](Cc2c[nH]c3c(C)cccc23)C(=O)N[C@@H](CCCCN(C)C(C)=O)C(=O)N[C@H](C(=O)N[C@@H](Cc2ccc(OCCN)cc2)C(=O)N[C@@H](Cc2ccc3ccccc3c2)C(=O)NC2(C(=O)N[C@@H](CCCCN(C)C(C)=O)C(=O)N[C@@H](CC(N)=O)C(=O)N[C@@H](Cc3cccnc3)C(=O)N(C)CC(N)=O)CCOCC2)C(C)(C)SSC1(C)C [compound 182, MeCO-Pen(3)-N(N(Me)2)-T-7MeW-K(NMeAc)-Pen(3)-AEF-2Nal-THP-K(NMeAc)-N-3Pya-Sar-CONH2] (Ac-[Pen]D(NMe2)T[Trp(7-Me)][Lys(Me)](Ac)[Pen][AEF][2Nal][Thp][Lys(Me)](Ac)N[3Pal][Sar]-NH2; disulfide 1-6) |
| 144 | CC(=O)NCCCC[C@@H]1NC(=O)[C@H](Cc2c[nH]c3c(C)cccc23)NC(=O)[C@H]([C@@H](C)O)NC(=O)[C@H](CC(N)=O)NC(=O)[C@@H](NC(C)=O)C(C)(C)SSC(C)(C)[C@@H](C(=O)N[C@@H](Cc2ccc(OCCNC(=O)CCOCCOCC[N+](C)(C)C)cc2)C(=O)N[C@@H](Cc2ccc3ccccc3c2)C(=O)NC2(C(=O)N[C@@H](CNC(C)=O)C(=O)N[C@@H](CC(N)=O)C(=O)N[C@@H](Cc3cccnc3)C(=O)N(C)CC(N)=O)CCOCC2)NC1=O [compound 189] |
| 146 | CC(=O)NCCCC[C@@H]1NC(=O)[C@H](Cc2c[nH]c3c(C)cccc23)NC(=O)[C@H]([C@@H](C)O)NC(=O)[C@H](CC(N)=O)NC(=O)[C@@H](NC(C)=O)C(C)(C)SSC(C)(C)[C@@H](C(=O)N[C@@H](Cc2ccc(OCCOCCOCC[N+](C)(C)C)cc2)C(=O)N[C@@H](Cc2ccc3ccccc3c2)C(=O)NC2(C(=O)N[C@@H](CCCCNC(C)=O)C(=O)N[C@@H](CC(N)=O)C(=O)N[C@@H](Cc3cccnc3)C(=O)N(C)CC(N)=O)CCOCC2)NC1=O [compound 194] (Ac-[Pen]NT[Trp(7-Me)]K(Ac)[Pen]Y(CH2CH2OCH2CH2OCH2CH2NMe3+)[2Nal][Thp]K(Ac)N[3Pal][Sar]-NH2; disulfide 1-6) |
| 147 | CC(=O)NCCCC[C@@H]1NC(=O)[C@H](Cc2c[nH]c3c(C)cccc23)NC(=O)[C@H]([C@@H](C)O)NC(=O)[C@H](CC(N)=O)NC(=O)[C@@H](NC(=O)CCOCCOCC[N+](C)(C)C)C(C)(C)SSC(C)(C)[C@@H](C(=O)N[C@@H](Cc2ccc(OCCOCCOCC[N+](C)(C)C)cc2)C(=O)N[C@@H](Cc2ccc3ccccc3c2)C(=O)NC2(C(=O)N[C@@H](CCCCNC(C)=O)C(=O)N[C@@H](CC(N)=O)C(=O)N[C@@H](Cc3cccnc3)C(=O)N(C)CC(N)=O)CCOCC2)NC1=O [compound 195, cPEG3aCO-Pen(3)-N-T-7MeW-K(Ac)-Pen(3)-APEG3F-2Nal-THP-K(Ac)-N-3Pya-Sar-CONH2] ({Me3N+(CH2)2O(CH2)2O(CH2)2CO}-[Pen]NT[Trp(7-Me)]K(Ac)[Pen]Y(CH2CH2OCH2CH2OCH2CH2NMe3+)[2Nal][Thp]K(Ac)N[3Pal][Sar]-NH2; disulfide 1-6) |
